This passage reports drug sensitivity score results from the supplement of paper PMC10920090.

Settings in all cases: 72 h
Experiment [1] relates to BT-474. As to the kind of experiment: drug sensitivity score (DSS), cell viability CellTiter-Glo; higher = more sensitive; extreme values may be limits of the assay. The method, then:
(§1)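 Targeted FIMM drug screen of 23 compounds at 5 concentrations over a 10,000-fold range in 384-well plates, 1250 cells/well, 72 h at 37 °C. Read-outs were CellTiter-Glo viability and CellTox Green cytotoxicity, normalised to DMSO and benzethonium chloride controls and summarised as drug sensitivity score (DSS). Cells stably transduced with shScramble or one of two shPPFIA1 constructs (shPPFIA1_1 TRCN0000002969, shPPFIA1_2 TRCN0000342514).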
On the technique in general: Cellular ATP, detected with luciferase, serves as a proxy for viable cell number.

Experiment [2] has as its system UT-SCC-24A. The description is as above. The method, then: as §1
The test system of experiment [3] is BT-474. As to the kind of experiment: drug sensitivity score (DSS), cytotoxicity CellTox Green; higher = more cytotoxic; extreme values may be limits of the assay. The method, then:
as §1

Experiment [4] has as its system UT-SCC-24A. The description is as above. The method, then:
as §1

Experiment [5] has as its system MDA-MB-231. The description is as above.
For experiment [6], the system named is MDA-MB-231. As to the kind of experiment: drug sensitivity score (DSS), cell viability CellTiter-Glo; higher = more sensitive; extreme values may be limits of the assay.

`CN[C@@H](C)C(=O)N[C@H]1CN(C(=O)CC(C)C)CC[C@H]2CC[C@@H](C(=O)NC(c3ccccc3)c3ccccc3)N2C1=O` [AT-406]: the drug sensitivity score is 0 DSS in the experiment on BT-474 [1] (shRNA: shPPFIA1_1); 0 DSS with BT-474 [1] (shRNA: shPPFIA1_2); 0 DSS with BT-474 [1] (shRNA: shScramble); 1 DSS in the experiment on UT-SCC-24A [2] (shRNA: shPPFIA1_1); 1.9 DSS with UT-SCC-24A [2] (shRNA: shPPFIA1_2); 0 DSS with UT-SCC-24A [2] (shRNA: shScramble). Further, the drug sensitivity score with BT-474 [3] (shRNA: shPPFIA1_1) was 1.3 DSS; in the experiment with BT-474 [3] (shRNA: shPPFIA1_2), 1.4 DSS; with BT-474 [3] (shRNA: shScramble) it was 0.2 DSS; in the experiment on UT-SCC-24A [4] (shRNA: shPPFIA1_1) it was 7.8 DSS; in the experiment with UT-SCC-24A [4] (shRNA: shPPFIA1_2), 13.5 DSS; with UT-SCC-24A [4] (shRNA: shScramble) it was 5.3 DSS. In addition, the drug sensitivity score in the experiment with MDA-MB-231 [5] (shRNA: shPPFIA1_1) came out at 32.3 DSS; in the experiment on MDA-MB-231 [5] (shRNA: shScramble), 19.8 DSS; in the experiment with MDA-MB-231 [6] (shRNA: shPPFIA1_1) it was 17 DSS; in the experiment on MDA-MB-231 [6] (shRNA: shScramble), 3.4 DSS.

In the case of `COc1ccc(-c2ccc3ncc4c(c3c2)n(-c2ccc(N3CCNCC3)c(C(F)(F)F)c2)c(=O)n4C)cn1` [NVP-BGT226], the drug sensitivity score in the experiment with BT-474 [1] (shRNA: shPPFIA1_1) is 9.6 DSS; in the experiment with BT-474 [1] (shRNA: shPPFIA1_2), 11.3 DSS; in the experiment with BT-474 [1] (shRNA: shScramble), 14.2 DSS; with UT-SCC-24A [2] (shRNA: shPPFIA1_1), 19.4 DSS; in the experiment with UT-SCC-24A [2] (shRNA: shPPFIA1_2), 20.4 DSS; in the experiment on UT-SCC-24A [2] (shRNA: shScramble) it was 20.7 DSS. In addition, the drug sensitivity score was 2.8 DSS with BT-474 [3] (shRNA: shPPFIA1_1); 6.2 DSS with BT-474 [3] (shRNA: shPPFIA1_2); 4.8 DSS with BT-474 [3] (shRNA: shScramble); 7.9 DSS in the experiment on UT-SCC-24A [4] (shRNA: shPPFIA1_1); 6.5 DSS with UT-SCC-24A [4] (shRNA: shPPFIA1_2); 7.8 DSS with UT-SCC-24A [4] (shRNA: shScramble). In addition, the drug sensitivity score was 0 DSS with MDA-MB-231 [5] (shRNA: shPPFIA1_1), 6.4 DSS in the experiment on MDA-MB-231 [5] (shRNA: shScramble), 0.8 DSS with MDA-MB-231 [6] (shRNA: shPPFIA1_1) and 17.3 DSS with MDA-MB-231 [6] (shRNA: shScramble).

Regarding `CC(C)CC(=O)Nc1n[nH]c2c1CN(C(=O)C1CCN(C)CC1)C2(C)C`, the drug sensitivity score in the experiment with BT-474 [1] (shRNA: shPPFIA1_1) stood at 1.2 DSS; in the experiment with BT-474 [1] (shRNA: shPPFIA1_2), 1.3 DSS; in the experiment on BT-474 [1] (shRNA: shScramble), 1.5 DSS; in the experiment with UT-SCC-24A [2] (shRNA: shPPFIA1_1), 8.1 DSS; in the experiment with UT-SCC-24A [2] (shRNA: shPPFIA1_2), 8.5 DSS; in the experiment on UT-SCC-24A [2] (shRNA: shScramble), 5.8 DSS. The drug sensitivity score in the experiment on BT-474 [3] (shRNA: shPPFIA1_1) turned out to be 0.9 DSS; in the experiment with BT-474 [3] (shRNA: shPPFIA1_2), 1.1 DSS; in the experiment on BT-474 [3] (shRNA: shScramble), 0.4 DSS; with UT-SCC-24A [4] (shRNA: shPPFIA1_1) it was 1.9 DSS; in the experiment on UT-SCC-24A [4] (shRNA: shPPFIA1_2), 1.4 DSS; in the experiment with UT-SCC-24A [4] (shRNA: shScramble), 1.2 DSS. The drug sensitivity score with MDA-MB-231 [5] (shRNA: shPPFIA1_1) is 3.2 DSS; in the experiment with MDA-MB-231 [5] (shRNA: shScramble), 0 DSS; in the experiment with MDA-MB-231 [6] (shRNA: shPPFIA1_1), 1.8 DSS; in the experiment with MDA-MB-231 [6] (shRNA: shScramble) it was 20.1 DSS.

Turning to `O=C(NC[C@H](O)CO)c1ccncc1Nc1ccc(I)cc1F` [Pimasertib], the drug sensitivity score with BT-474 [1] (shRNA: shPPFIA1_1) worked out at 0.1 DSS; with BT-474 [1] (shRNA: shPPFIA1_2) it was 0.5 DSS; in the experiment with BT-474 [1] (shRNA: shScramble), 0.4 DSS; in the experiment on UT-SCC-24A [2] (shRNA: shPPFIA1_1), 25.6 DSS; with UT-SCC-24A [2] (shRNA: shPPFIA1_2) it was 23.4 DSS; in the experiment with UT-SCC-24A [2] (shRNA: shScramble) it was 20.5 DSS. For the same compound, the drug sensitivity score came out at 0 DSS in the experiment on BT-474 [3] (shRNA: shPPFIA1_1); 0.2 DSS with BT-474 [3] (shRNA: shPPFIA1_2); 0 DSS in the experiment on BT-474 [3] (shRNA: shScramble); 28.5 DSS in the experiment with UT-SCC-24A [4] (shRNA: shPPFIA1_1); 23.5 DSS in the experiment with UT-SCC-24A [4] (shRNA: shPPFIA1_2); 15.6 DSS with UT-SCC-24A [4] (shRNA: shScramble). Moreover, the drug sensitivity score is 6.2 DSS in the experiment on MDA-MB-231 [5] (shRNA: shPPFIA1_1), 11.7 DSS with MDA-MB-231 [5] (shRNA: shScramble), 2.4 DSS with MDA-MB-231 [6] (shRNA: shPPFIA1_1) and 12.4 DSS in the experiment with MDA-MB-231 [6] (shRNA: shScramble).

In the case of `Cc1cc(C(=O)NOCCO)c(Nc2ccc(I)cc2F)n(C)c1=O` [AZD-8330], the drug sensitivity score in the experiment on BT-474 [1] (shRNA: shPPFIA1_1) stood at 0 DSS; in the experiment with BT-474 [1] (shRNA: shPPFIA1_2) it was 0 DSS; with BT-474 [1] (shRNA: shScramble), 0 DSS; in the experiment with UT-SCC-24A [2] (shRNA: shPPFIA1_1), 30 DSS; with UT-SCC-24A [2] (shRNA: shPPFIA1_2) it was 27.6 DSS; in the experiment on UT-SCC-24A [2] (shRNA: shScramble), 23.9 DSS. Further, the drug sensitivity score in the experiment with BT-474 [3] (shRNA: shPPFIA1_1) is 0 DSS; in the experiment on BT-474 [3] (shRNA: shPPFIA1_2), 0 DSS; in the experiment with BT-474 [3] (shRNA: shScramble) it was 0 DSS; with UT-SCC-24A [4] (shRNA: shPPFIA1_1) it was 28.4 DSS; in the experiment with UT-SCC-24A [4] (shRNA: shPPFIA1_2), 27.6 DSS; in the experiment with UT-SCC-24A [4] (shRNA: shScramble) it was 14.2 DSS. Besides, the drug sensitivity score turned out to be 15 DSS with MDA-MB-231 [5] (shRNA: shPPFIA1_1), 20.3 DSS in the experiment with MDA-MB-231 [5] (shRNA: shScramble), 5.5 DSS with MDA-MB-231 [6] (shRNA: shPPFIA1_1) and 21.8 DSS in the experiment with MDA-MB-231 [6] (shRNA: shScramble).

For the compound `CO[C@H]1C[C@@H]2CC[C@@H](C)[C@@](O)(O2)C(=O)C(=O)N2CCCC[C@H]2C(=O)O[C@H]([C@H](C)C[C@@H]2CC[C@@H](OCCO)[C@H](OC)C2)CC(=O)[C@H](C)/C=C(\C)[C@@H](O)[C@@H](OC)C(=O)[C@H](C)C[C@H](C)/C=C/C=C/C=C/1C` [Everolimus], the drug sensitivity score was determined as 5.2 DSS in the experiment with BT-474 [1] (shRNA: shPPFIA1_1); 3.6 DSS with BT-474 [1] (shRNA: shPPFIA1_2); 5.2 DSS with BT-474 [1] (shRNA: shScramble); 1.3 DSS in the experiment with UT-SCC-24A [2] (shRNA: shPPFIA1_1); 2.5 DSS in the experiment with UT-SCC-24A [2] (shRNA: shPPFIA1_2); 2.9 DSS with UT-SCC-24A [2] (shRNA: shScramble). The drug sensitivity score with BT-474 [3] (shRNA: shPPFIA1_1), in the experiment on BT-474 [3] (shRNA: shPPFIA1_2), in the experiment on BT-474 [3] (shRNA: shScramble), in the experiment on UT-SCC-24A [4] (shRNA: shPPFIA1_1), with UT-SCC-24A [4] (shRNA: shPPFIA1_2) and in the experiment on UT-SCC-24A [4] (shRNA: shScramble) was 0 DSS each time. Besides, the drug sensitivity score was 0 DSS in the experiment on MDA-MB-231 [5] (shRNA: shPPFIA1_1), 0 DSS with MDA-MB-231 [5] (shRNA: shScramble), 0 DSS in the experiment with MDA-MB-231 [6] (shRNA: shPPFIA1_1) and 6.1 DSS with MDA-MB-231 [6] (shRNA: shScramble).
